This note sets out measurements from paper PMC11435438, “Cyclin-Dependent Kinase 8 Represents a Positive Regulator of Cytomegalovirus Replication and a Novel Host Target for Antiviral Strategies” (Pharmaceutics, 2024).

Test [1] relates to HCMV TB40-YFP. Description: HCMV TB40-YFP replication assay in HFFs. In kind it is cell-based, human cytomegalovirus. The note with it: Human betaherpesvirus 5, HFF, read-out: EC50 TB40-YFP. Here is the method:
(§1) (i.e., 1 × TCID25/7d). Immediately after virus adsorption, the cells were treated with antiviral compounds or solvent control (DMSO). Infections were performed in biological quadruplicates, or as indicated for individual experiments. The cells were fixed by the addition of 150 µL 10% formalin/well 7 d p.i. (Merlin-GFP 14 d p.i.), and washed with PBS. For GFP or YFP quantitation, the Victor X4 microplate reader (PerkinElmer, Waltham, MA, USA) was primarily used, or as a very sensitive alternative, the ImageXpress® Pico device (Molecular Devices LLC, San Jose, CA, USA). Mean EC50 values of antiviral efficacy were calculated on the basis of three experimental replicates or as indicated (measurement of fluorescence values in quadruplicate), and percentage values were provided relative to the solvent control (DMSO).

Test [2] deals with HSV-1 166v VP22-GFP. As to the kind of experiment: HSV-1 replication assay in HFFs. In kind it is cell-based, herpes simplex virus type 1. The note with it: Human alphaherpesvirus 1, read-out: EC50 HSV-1. On the procedure:
(§2) Primary human foreskin fibroblasts (HFFs; obtained from clinical samples at Children’s Hospital in Erlangen, Germany), guinea pig embryonic fibroblasts (GPEFs; generously provided by Mark R. Schleiss from the University of Minnesota in Minneapolis, MN, USA), and rat embryonic fibroblasts were cultivated in Eagle’s Minimal Essential Medium (MEM) supplemented with 1 × GlutaMAX™ (both from Thermo Fisher Scientific, Waltham, MA, USA), 10 µg/mL gentamicin, and 10% fetal bovine serum (FBS; Capricorn, Ebsdorfergrund, Germany). Human glioblastoma–astrocytoma cell line (U373) and mouse embryonic fibroblasts (MEFs), both obtained from ATCC (Manassas, VA, USA), and Vero cell sublineage 76 [26], were cultivated in Dulbecco’s modified Eagle’s medium (DMEM) supplemented with 1 × GlutaMAX™, 10 µg/mL gentamicin, and 10% fetal bovine serum. All cultured cells were maintained under the conditions of 37 °C temperature, 5% CO2, and 80% humidity. The regular monitoring for the absence of mycoplasma contamination was conducted using Lonza™ Mycoalert™ (Thermo Fisher Scientific, Waltham, MA, USA). Cultured cell-based viral replication assays were performed by the use of the HCMV strain AD169 (variant U.K.), the recombinant HCMVs AD169-GFP expressing green fluorescent protein [27], TB40 IE2-YFP and TB40-FLuc expressing an IE2-YFP fusion protein or firefly luciferase (FLuc), and Merlin-GFP [31]. […]
(§3) A variety of antiherpesviral and non-herpesviral drug activities were assessed by the cell culture-based viral replication systems, as described elsewhere. […] After incubation at 37 °C for 3 days, iSLK.219 cells were fixed with 10% formalin, washed with PBS, and used for a quantitation of RFP reporter signal by PicoMD counting (ImageXpress® Pico device, Molecular Devices LLC, San Jose, CA, USA). […]

For test [3], the system named is HCMV Merlin-GFP. Description: HCMV Merlin-GFP replication assay in U373 cells. The format is cell-based, human cytomegalovirus. The note with it: Human betaherpesvirus 5, U373 MG, read-out: EC50 Merlin-GFP. On the procedure:
as §1

Test [4] concerns VZV Oka-GFP. Description: VZV replication assay in HFFs. In kind it is cell-based, varicella zoster virus. The note with it: Human alphaherpesvirus 3, read-out: EC50 VZV. Here is the method: as §2, §3

Turning to `Cc1n[nH]c2ncc(C(=O)N3CCC[C@H]3c3ccc(Cl)cc3)cc12` [MSC-2530818], the 50% effective concentration (EC50) (in general, the concentration at which the effect is half-maximal) in test [1] was 4.97 ± 3.3 nM; in test [2], 42300 ± 4900 nM; in test [3] it was 4.47 ± 4.4 nM; in test [4] it was over 50000 nM.
Regarding `CN(C)C(=O)Cn1cc(-c2ccc(-c3cncc4ccccc34)cc2)cn1` [BI-1347], the half-maximal effective concentration (EC50) in test [1] is 2.83 ± 2.3 nM; in test [2], over 50000 nM; in test [3], 1.4 ± 1.37 nM; in test [4] it was 26000 ± 10000 nM.
Consider `Cn1ncc2cc(-c3cnc(N)c(Cl)c3N3CCC4(CCNC4=O)CC3)ccc21` [CCT-151921], for which the EC50 was 10 ± 6.33 nM in test [1], over 50000 nM in test [2], 14.7 ± 16.3 nM in test [3] and 28000 ± 9000 nM in test [4].
